Measurements published in patent US5110816A, “3-[2-(4-arylpiperazin-1-yl)ethoxy]-p-cymene, the method of preparing and composition thereof” (Institut de Recherches Chimiques et Biologiques Appliquees …, priority 1988, dated 1992).
Counter-ions that a name gives are not always drawn.

Tests used:
[1] = Acute toxicity in mice, single oral dose; details: mouse, in vivo, p.o., 14-day observation
Protocol: The products were administered orally to mice in a single dose. After a 14-day observation period, the mortality was recorded.
The results are expressed in the form of the 50% lethal dose (LD50) in mg.kg^-1.

arterial pressure = assay: Norepinephrine-induced arterial hyperpressure in anesthetized rabbits; type: in vivo; details: Oryctolagus cuniculus, iv, norepinephrine i.v., 50% inhibition of increase in arterial pressure, read-out: Arterial pressure ID50
Protocol: (§1) 5. Activity on Ureteral Hyperpressure in Rabbits
(§2) An increase in the arterial pressure and the ureteral pressure is induced in anesthetized rabbits by an intravenous injection of norepinephrine. These hyperpressures can be inhibited by the prior administration of molecules with alpha-blocking potential.
The efficacy is assessed by the 50% inhibitory dose (ID50), i.e. the dose which inhibits the increases in arterial and ureteral pressures by 50 percent.

[2] = test system: toxicity of norepinephrine; assay: Adrenolytic activity in vivo in rats (protection against norepinephrine lethality); details: for ED50: Rattus norvegicus, oral 30 minutes before i.v. norepinephrine 0.4 mg.kg^-1, dose protecting 50 percent of animals; for protection against the toxicity of norepinephrine (in words): oral
Protocol: 4. Determination of the Adrenolytic Activity "In Vivo" in Rats
The intravenous injection of norepinephrine (0.4 mg.kg^-1) in wake rats causes the death of 100 percent of the animals. The prior administration of a substance with an alpha-blocking property makes it possible to reduce this toxicity.
The products claimed were administered orally 30 minutes before the intravenous injection of norepinephrine.
These are expressed in the form of the 50% effective dose (ED50), i.e. the dose, in mg.kg^-1, which protects 50 percent of the animals.

ureteral pressure = assay: Norepinephrine-induced ureteral hyperpressure in anesthetized rabbits; type: in vivo; details: for ratio of ID50 arterial pressure to ID50 ureteral pressure: I.V.; for ED50: Oryctolagus cuniculus, iv, norepinephrine i.v., 50% inhibition of increase in ureteral pressure, read-out: Ureteral pressure ID50
From the text: as §1, §2

[3] = target: T1, postsynaptic alpha-adrenergic receptors (Rattus norvegicus, UniProt P43140); assay: Alpha-blocking activity on isolated rat vas deferens; type: cell-based; details: norepinephrine contraction, -log of product concentration at which norepinephrine concentration must be doubled, read-out: pA2 (converted)
T1 construct: contraction of the isolated vas deferens; from tissue; host or cells: isolated rat vas deferens
T1 sequence (P43140 1-466): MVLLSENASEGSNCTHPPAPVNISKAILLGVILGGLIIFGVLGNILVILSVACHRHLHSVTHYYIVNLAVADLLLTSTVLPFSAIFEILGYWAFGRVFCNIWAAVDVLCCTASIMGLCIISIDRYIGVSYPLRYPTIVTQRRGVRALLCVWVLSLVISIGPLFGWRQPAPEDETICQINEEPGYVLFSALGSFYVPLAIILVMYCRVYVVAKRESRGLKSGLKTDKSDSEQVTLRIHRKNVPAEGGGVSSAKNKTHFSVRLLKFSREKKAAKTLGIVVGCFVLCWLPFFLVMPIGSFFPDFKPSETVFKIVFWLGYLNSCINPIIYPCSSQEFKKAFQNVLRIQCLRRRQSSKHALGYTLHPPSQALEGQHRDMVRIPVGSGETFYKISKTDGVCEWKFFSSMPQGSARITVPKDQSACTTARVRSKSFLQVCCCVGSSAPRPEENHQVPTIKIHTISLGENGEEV
From the text: 2. Determination of the Alpha-Blocking Activity on Isolated Rat Vas Deferens
Stimulation of the postsynaptic alpha-adrenergic receptors by norepinephrine causes contraction of the isolated vas deferens. The aim is to find the product concentration in whose presence the norepinephrine concentration must be doubled in order to obtain the same effect as in the absence of said product.
The logarithm of this concentration, with its sign changed, represents the pA2 value of the product.

[4] = Solubility remark in the isolated rat vas deferens test (Table II); type: physicochemical; details: under pA2 in Table II, value N.D.
[5] = test system: postsynaptic alpha-adrenergic receptors; assay: Alpha-blocking activity on isolated rabbit ureter; type: cell-based; details: norepinephrine contraction halved, printed in Table II with asterisk
From the text: 3. Determination of the Alpha-Blocking Activity on Isolated Rabbit Ureter
Stimulation of the postsynaptic alpha-adrenergic receptors by norepinephrine causes contraction of the isolated rabbit ureter.
The aim is to find the product concentration in whose presence the contracting effect of a given norepinephrine concentration is halved by comparison with the contraction induced before the addition of said product.
The logarithm of this concentration, with its sign changed, represents the pD'2 value.

Row | SMILES | LD50 at 336 h [1] [mg/kg] | ED50 (arterial pressure) [mg/kg] | ED50 [2] [mg/kg] | protection against the toxicity of norepinephrine (in words) [2] | ratio of ID50 arterial pressure to ID50 ureteral pressure (ureteral pressure) | ED50 (ureteral pressure) [mg/kg] | Kb [3] [nM] | solubility remark [4] | pD'2 [5]
1 | CCOc1ccccc1N1CCN(CCOc2cc(C)ccc2C(C)C)CC1 [B 1178, 3-[2-(4-o-ethoxyphenylpiperazin-1-yl)ethoxy]-p-cymene dihydrochloride] | > 1000 | 3.9 | 2 | excellent protection against the toxicity of norepinephrine | 10.6 | 0.37 | 72.4 |  | 
2 | Cc1ccc(C(C)C)c(OCCN2CCN(c3ccccc3Cl)CC2)c1 [B 1299, 3-[2-(4-o-chlorophenylpiperazin-1-yl)ethoxy]-p-cymene hydrochloride] | > 1000 |  | 10 | excellent protection against the toxicity of norepinephrine |  |  | 347 |  | 
3 | COc1ccc(N2CCN(CCOc3cc(C)ccc3C(C)C)CC2)c(OC)c1 [B 1362] | 897 |  | 37.3 |  |  |  | > 1000 |  | 
4 | Cc1ccc(C(C)C)c(OCCN2CCN(c3ccc(F)cc3)CC2)c1 [B.1055, 3-[2-(4-p-fluorophenylpiperazin-1-yl)ethoxy]-p-cymene dihydrochloride] | > 1000 |  | > 100 |  |  |  | 468 |  | 
5 | Cc1ccc(C(C)C)c(OCCN2CCN(c3ccccc3)CC2)c1 [B.1057, 3-[2-(4-phenylpiperazin-1-yl)ethoxy]-p-cymene dihydrochloride] | > 1000 |  | > 100 |  |  |  | 398 |  | 
6 | Cc1ccc(C(C)C)c(OCCN2CCN(c3cccc(C(F)(F)F)c3)CC2)c1 [B.1079, 3-[2-(4-α,α,α-trifluoro-m-tolylpiperazin-1-yl)ethoxy]-p-cymene monohydrochloride] | > 1000 |  | > 100 |  |  |  | > 1000 |  | 
7 | CC(=O)c1ccc(N2CCN(CCOc3cc(C)ccc3C(C)C)CC2)cc1 [B.1105, 3-[2-(4-p-acetylphenylpiperazin-1-yl)ethoxy]-p-cymene hydrochloride] | ~540 |  | 200 |  |  |  | 537 |  | 
8 | COc1ccc(N2CCN(CCOc3cc(C)ccc3C(C)C)CC2)cc1 [B.1115, 3-[2-(4-p-methoxyphenylpiperazin-1-yl)ethoxy]-p-cymene dihydrochloride] | > 1000 |  | 200 |  |  |  | 288 |  | 
9 | Cc1ccc(C(C)C)c(OCCN2CCN(c3ccc(Cl)cc3C)CC2)c1 [B.1152, 3-[2-4-(4-chloro-2-methyl)phenylpiperazine-1-yl)ethoxy]-p-cymene hydrochloride] | > 1000 |  | > 100 |  |  |  |  | insoluble | 
10 | COc1ccccc1N1CCN(CCOc2cc(C)ccc2C(C)C)CC1 [B.1168, 3-[2-(4-o-methoxyphenylpiperazin-1-yl)-ethoxy]-p-cymene dihydrochloride] | > 1000 |  | 3 | excellent protection against the toxicity of norepinephrine |  |  | 195 |  | 
11 | Cc1ccc(C(C)C)c(OCCN2CCN(c3ccc(Cl)c(Cl)c3)CC2)c1 [B.1184, 3-[2-4-(3,4-dichloro)phenylpiperazin-1-yl)ethoxy]-p-cymene hydrochloride] | > 1000 |  | > 100 |  |  |  |  | insoluble | 
12 | Cc1ccc(C(C)C)c(OCCN2CCN(c3ccc(Cl)cc3)CC2)c1 [B.1191, 3-[2-(4-p-chlorophenylpiperazin-1-yl)ethoxy]-p-cymene dihydrochloride] | > 1000 |  | > 100 |  |  |  | 331 |  | 
13 | CCOc1cccc(N2CCN(CCOc3cc(C)ccc3C(C)C)CC2)c1 [B.1204, 3-[2-(4-m-ethoxyphenylpiperazin-1-yl)ethoxy]-p-cymene hydrochlroide] | > 1000 |  | 56 |  |  |  | 1000 |  | 
14 | COc1cccc(N2CCN(CCOc3cc(C)ccc3C(C)C)CC2)c1 [B.1206, 3-[2-(4-m-methoxyphenylpiperazin-1-yl)ethoxy]-p-cymene hydrochloride] | > 1000 |  | 100 |  |  |  | 170 |  | 
15 | Cc1ccc(C(C)C)c(OCCN2CCN(c3ccccc3C)CC2)c1 [B.1213, 3-[2-(4-o-methylphenylpiperazin-1-yl)-ethoxy]-p-cymene hydrochloride] | > 1000 |  | 15 |  |  |  | 1100 |  | 
16 | Cc1ccc(C(C)C)c(OCCN2CCN(c3cc(Cl)ccc3C)CC2)c1 [B.1256] | > 1000 |  | 121 |  |  |  | > 1000 |  | 
17 | Cc1ccc(C(C)C)c(OCCN2CCN(c3ccccc3F)CC2)c1 [B.1261, 3-[2-(4-o-fluorophenylpiperazin-1-yl)ethoxy]-p-cymene hydrochloride] | > 1000 |  | 20 |  |  |  | 363 |  | 
18 | Cc1ccc(C(C)C)c(OCCN2CCN(c3c(C)cccc3Cl)CC2)c1 [B.1326] | > 1000 |  | > 200 |  |  |  | > 1000 |  | 
19 | Cc1ccc(C(C)C)c(OCCN2CCN(c3ccccc3O)CC2)c1 [B.1338] | > 1000 | 19 | 6.4 |  | 11.8 | 1.6 | 40.7 |  | 
20 | CCCCOc1ccccc1N1CCN(CCOc2cc(C)ccc2C(C)C)CC1 [B.1340] | > 1000 |  | 11.3 |  |  |  | > 1000 |  | 
21 | Cc1ccc(C(C)C)c(OCCN2CCN(c3cccc(O)c3)CC2)c1 [B.1343] | > 1000 |  | 142 |  |  |  | 832 |  | 
22 | Cc1ccc(N2CCN(CCOc3cc(C)ccc3C(C)C)CC2)c(Cl)c1 [B.1353] | > 1000 |  | 30.9 |  |  |  | > 1000 |  | 
23 | CCCCCOc1ccccc1N1CCN(CCOc2cc(C)ccc2C(C)C)CC1 [B.1356] | > 1000 |  | 31.1 |  |  |  | > 1000 |  | 
24 | CCCOc1ccccc1N1CCN(CCOc2cc(C)ccc2C(C)C)CC1 [B.1358] | > 1000 | 5 | 2.1 | excellent protection against the toxicity of norepinephrine | 4.1 | 1.22 | > 1000 |  | 
25 | COc1ccc(OC)c(N2CCN(CCOc3cc(C)ccc3C(C)C)CC2)c1 [B.1387] | > 1000 |  | 6.78 | excellent protection against the toxicity of norepinephrine |  |  | 355 |  | 
26 | Cc1ccc(C(C)C)c(OCCN2CCN(c3c(C)cccc3C)CC2)c1 [B.1393] | > 1000 |  | > 200 |  |  |  | > 1000 |  | 
27 | Cc1ccc(C(C)C)c(OCCN2CCN(c3ccccc3OC(C)C)CC2)c1 [B.1399] | ~500 | 1.64 | 0.78 | excellent protection against the toxicity of norepinephrine | 9.1 | 0.18 |  |  | 6.69
